According to patent US20220062250A1, “COMBINATION OF A SK2 INHIBITOR AND AN INHIBITOR OF A CHECKPOINT PATHWAY, USES AND PHARMACEUTICAL COMPOSITIONS THEREOF” (Apogee Biotechnology Corporation, priority 2019, published 2022):

Key:
[1] = tested on: TRAMP-C2; assay: Surface expression of calreticulin by flow cytometry, TRAMP-C2; format: cell-based; conditions: TRAMP-C2 (Prostate); 40 μM ABC294640, 24 hours; relative to DMSO control = 1.0; logarithmic scale
Method: (§1) One indicator that tumor cells are undergoing immunogenic cell death (ICD) is increased expression of calreticulin on the surface of the cells. Calreticulin is normally expressed in the endoplasmic reticulum (ER) of cells; however, when cells are treated with an agent that promotes ER stress, calreticulin expression can be observed on the external surface of the cells. Promotion of ER stress is a typical mechanism for inducing ICD, and therefore measuring the surface expression of calreticulin is an established method for determining if a compound causes ICD. The effects of ABC294640, an inhibitor of sphingosine kinase-2, on the surface expression of calreticulin in several different types of tumor cells were examined. […] The cells were then incubated with a fluorescently labeled antibody that selectively binds to calreticulin, washed and then analyzed by flow cytometry to quantify the amount of surface calreticulin on many individual cells. The resulting data is analyzed by determining the geometric mean of the fluorescence intensity for the population of cells using algorithms well known in the field of flow cytometry. […] The geometric mean of the fluorescence intensity for cell samples treated with DMSO was expressed as 1.0 and the data for cell samples treated with ABC294640 were expressed relative to the DMSO control. […]

[2] = tested on: E0771; assay: Surface expression of calreticulin by flow cytometry, E0771; format: cell-based; conditions: E0771 (Breast); 40 μM ABC294640, 24 hours; relative to DMSO control = 1.0; logarithmic scale
Method: as §1

[3] = tested on: LLC tumors; assay: LLC tumor model, ABC294640 in combination with anti-CTLA4 antibody (Example 9); format: in vivo, mice
Method: The combined effects of treating tumor-bearing mice with ABC294640 and anti-CTLA41 antibody were examined in the LLC tumor model. Anti-mouse CTLA-4 (catalog number BE0131) antibody was purchased from BioXCell (West Lebanon, N.H.). Mice were injected with 1,000,000 LLC cells suspended in PBS into the right hind flank subcutaneously on Day 0 of the experiment. Mice were randomized On Day 3 of the experiment into the following four treatment groups (n=5/group): Control (vehicle only); ABC294640 alone; anti-CTLA4 antibody alone; and ABC294640 in combination with anti-CTLA4 antibody. ABC294640 was suspended in vehicle (46.7% PEG, 46.7% saline and 6.6% ethanol) and dosed by oral gavage at 50 mg/kg 5 days/week (i.e. days 3-7, 10-14, 17-21, etc.) until sacrifice. Anti-CTLA4 antibody was suspended in dilution buffer (BioXCell, catalog number IP0070) and administered by intraperitoneal (i.p.) injection at a dose of 200 μg/mouse on Days 3, 6, 10, 13, 17 and 20. The combination treatment group mice received antibody and ABC294640 treatments concomitantly on days when antibody was scheduled. Control group mice received oral vehicle and/or sterile PBS i.p. on all days that treated mice received either ABC294640 or antibody. Tumors were measured with digital calipers three times per week and volumes were calculated using the formula, (L×W^2)/2. Mice were euthanized when tumor volumes reached ≥3,000 mm^3. […] Tumors in the Control mice grew progressively after a lag of approximately 7 days. On Day 21, the average tumor volumes for the Control, ABC294640 alone, anti-CTLA4 antibody alone, and combination treatment groups were 4622±548, 3197±914, 3029±675 and 1274±336 mm^3, respectively. […] As directed by the IACUC protocol, each mouse was sacrificed when its tumor volume reached 3,000 mm^3. […] The combination of ABC294640 plus anti-CTLA4 antibody increased median survival to >26 days, and 60% of these mice survived to Day 26.

[4] = tested on: PAN02; assay: Surface expression of calreticulin by flow cytometry, PAN02; format: cell-based; conditions: PAN02 (Pancreas); 40 μM ABC294640, 24 hours; relative to DMSO control = 1.0; logarithmic scale (2.0 = 10-fold increase)
Method: as §1

[5] = tested on: Neuro-2a; assay: Surface expression of calreticulin by flow cytometry, Neuro-2a; format: cell-based, murine; conditions: Neuro-2a (Neuroblastoma); 40 μM ABC294640, 24 hours; relative to DMSO control = 1.0; logarithmic scale
Method: as §1

[6] = tested on: B16 tumors; assay: B16 tumor model, ABC294640 in combination with anti-PD-L1 antibody (Example 10); format: in vivo, mice; conditions: B16 tumors ≥300 mm^3 at randomization (Day 1); ABC294640 50 mg/kg oral gavage 5 days/week; anti-PD-L1 antibody 200 μg/mouse i.p. Days 1, 3, 5 and 7; Vehicle 8.5
Method: The combined effects of treating tumor-bearing mice with ABC294640 and anti-PD-L1 antibody were examined in the B16 tumor model. Anti-mouse PD-L1 (catalog number BE0101) antibody was purchased from BioXCell (West Lebanon, N.H.). Mice were injected with 100,000 B16 cells suspended in PBS into the right hind flank subcutaneously on Day 0 of the experiment. When the tumor reached a volume of ≥300 mm^3, mice were randomized into the following four treatment groups (n=5-6/group): Control (vehicle only); ABC294640 alone; anti-PD-L1 antibody alone; and ABC294640 in combination with anti-PD-L1 antibody. The day of randomization is noted as Day 1 of the experiment for each mouse. ABC294640 was suspended in vehicle (46.7% PEG, 46.7% saline and 6.6% ethanol) and dosed by oral gavage at 50 mg/kg 5 days/week until sacrifice. Anti-PD-L1 antibody was suspended in dilution buffer (BioXCell, catalog number IP0070) and administered by intraperitoneal (i.p.) injection at a dose of 200 μg/mouse on Days 1, 3, 5 and 7. The combination treatment group mice received antibody and ABC294640 treatments concomitantly on days when antibody was scheduled. Control group mice received oral vehicle and/or sterile PBS i.p. on all days that treated mice received either ABC294640 or antibody. Tumors were measured with digital calipers three times per week and volumes were calculated using the formula, (L×W^2)/2. […]

[7] = tested on: B16 tumors; assay: B16 tumor model, ABC294640 in combination with anti-PD-1 antibody (Example 8); format: in vivo, C57BL/6 mice
Method: Agents that induce ICD may enhance the antitumor activity of checkpoint antibodies. […] Anti-mouse PD-1 (Catalog number BE0146) antibody was purchased from BioXCell (West Lebanon, N.H.). C57BL/6 mice were injected with 100,000 B16 cells suspended in PBS into the right hind flank subcutaneously on Day 0 of the experiment. Mice were randomized on Day 3 of the experiment into the following four treatment groups (n=10/group): Control (vehicle only); ABC294640 alone; anti-PD-1 antibody alone; and ABC294640 in combination with anti-PD-1 antibody. ABC294640 was suspended in vehicle (46.7% PEG, 46.7% saline and 6.6% ethanol) and dosed by oral gavage at 50 mg/kg 5 days/week (i.e. days 3-7, 10-14, 17-21, etc.) until sacrifice. Anti-PD-1 antibody was suspended in sterile PBS, and administered by intraperitoneal (i.p.) injection at a dose of 200 μg/mouse on Days 3, 6 and 10. The combination treatment group mice received antibody and ABC294640 treatments concomitantly on days when antibody was scheduled. Control group mice received oral vehicle and/or sterile PBS i.p. on all days that treated mice received either ABC294640 or antibody. Tumors were measured with digital calipers three times per week and volumes were calculated using the formula, (L×W^2)/2. Mice were euthanized when tumor volumes reached ≥3,000 mm^3. […] Tumors in the Control mice grew very aggressively after a lag of approximately 10 days. On Day 19, the average tumor volumes for the Control, ABC294640 alone, anti-PD-1 antibody alone, and combination treatment groups were 1702±373, 892±364, 783±265 and 190±114 mm^3, respectively. […] As directed by the IACUC protocol, each mouse was sacrificed when its tumor volume reached 3,000 mm^3. […] Treatment with ABC294640 alone provided a median survival of 24 days and 30% of the mice were alive on Day 56 when the experiment was terminated (p=0.009).

[8] = tested on: B16-F10; assay: Surface expression of calreticulin by flow cytometry, B16-F10; format: cell-based, murine; conditions: B16-F10 (Melanoma); 40 μM ABC294640, 24 hours; relative to DMSO control = 1.0; logarithmic scale
Method: as §1

[9] = tested on: Lewis Lung carcinoma; assay: Surface expression of calreticulin by flow cytometry, Lewis Lung carcinoma; format: cell-based, murine; conditions: 40 μM ABC294640, 24 hours, relative to DMSO control = 1.0, logarithmic scale
Method: as §1

[10] = given intravenously every 2 weeks; cited from earlier work

Molecule | Surface calreticulin expression (Geometric mean of fluorescence intensity) [1] | Surface calreticulin expression (Geometric mean of fluorescence intensity) [2] | median survival ([3]; LLC tumor-bearing mice, sacrificed at tumor volume 3,000 mm^3, Control 19 days) | average tumor volume ([3]; LLC tumors, Day 21, ABC294640 50 mg/kg oral gavage 5 days/week, anti-CTLA4 antibody 200 μg/mouse i.p. Days 3, 6, 10, 13, 17 and 20, Control 4622±548) | growth of LLC lung tumors (FIG. 8) ([3]; in words) | survival of mice bearing LLC tumors (FIG. 9) ([3]; in words) | Surface calreticulin expression (Geometric mean of fluorescence intensity) [4] | Surface calreticulin expression (Geometric mean of fluorescence intensity) [5] | median survival [6] | median survival ([7]; B16 tumor-bearing mice, sacrificed at tumor volume 3,000 mm^3, Control 21 days) | mice alive on Day 56 ([7]; B16 tumor-bearing mice, experiment terminated Day 56, all Control animals sacrificed by Day 29) | average tumor volume ([7]; B16 tumors, Day 19, ABC294640 50 mg/kg oral gavage 5 days/week, anti-PD-1 antibody 200 μg/mouse i.p. Days 3, 6 and 10, Control 1702±373) | growth of B16 melanoma tumors (FIG. 6) ([7]; in words) | survival of mice bearing B16 melanoma tumors (FIG. 7) ([7]; in words) | Surface calreticulin expression (Geometric mean of fluorescence intensity) [8] | Surface calreticulin expression (Geometric mean of fluorescence intensity) [9] | tolerated dose [10]
O=C(NCc1ccncc1)C12CC3CC(C1)CC(c1ccc(Cl)cc1)(C3)C2 [ABC294640, 3-(4-chlorophenyl)-adamantane-1-carboxylic acid (pyridin-4-ylmethyl)amide] | 3.64 | 1.46 | 22 days | 3197±914 mm^3 | partially inhibited | slightly prolonged | 2.31 | 3.0 | 10 days | 24 days | 30% | 892±364 mm^3 | partially inhibited | slightly prolonged | 2.7 | 3.0 | 
nivolumab |  |  |  |  |  |  |  |  |  |  |  |  |  |  |  |  | up to 10 mg/kg
